By pIC50 is commonly meant −log10 of the IC50, conventionally taken in molar units.

The text below walks through data of publication PMC3460821, “SIRT1 Activators Suppress Inflammatory Responses through Promotion of p65 Deacetylation and Inhibition of NF-κB Activity” (PLoS ONE, 2012).

The assay has as its system SIRT1. Description: cells. Further details: species or system U2OS or HEK 293; AlphaScreen of acetylated K310-p65 in lysates of cells co-expressing p300 and HA-p65; reduction by SIRT1 activators. The settings on record: reduction of cellular acetylated p65 (K310); read-out: Cellular p65 acetylation assay IC50. How it is done:
Acetylated p65 protein in cell lysates was measured by an AlphaScreen format based assay (Bosse et al., Principles of AlphaScreen. PerkinElmer Application Note (2001)). A sandwich comprised of a biotinylated anti-HA antibody (Roche, 12158167001) bound to streptavidin coated donor beads (PerkinElmer, 6760617M) and an anti-acetylated K310-p65 antibody (Abcam, ab19870) interacting with protein A coated acceptor beads was assembled to detect light emission upon acetylated HA-p65 protein binding to the donor and acceptor beads. A similar AlphaScreen assay to measure total HA-tagged p65 protein was also developed by replacing the anti-acetylated K310-p65 antibody with an anti-p65 antibody (Santa Cruz, sc-109). The level of acetylated p65 protein was normalized against the total HA-tagged p65 protein measured in parallel for the same sample. We developed a high throughput cellular assay to examine the ability of compounds to promote SIRT1-mediated deacetylation of p65 protein in cells. This assay system uses BacMam virus transduction in U2OS or HEK 293 cells to co-express p300 HAT and an HA-tagged p65 NF-κB subunit to enable detection of acetylated p65. […] Similarly, pharmacological inhibition of SIRT1 by a specific SIRT1 inhibitor, EX-527 [46], increased the levels of acetylated p65 protein (Figure 3D). […] STACs that were identified from biochemical assays (File S1) were evaluated in the acetylated p65 cellular assay. […] The compounds were tested for the inhibition of histone acetyltransferases (HATs) since this could result in a reduction of acetylated p65 that could not be distinguished from an enhancement of deacetylation.

Structures are written as SMILES. pIC50: −log10 of the molar value.

On to `O=C(Nc1nccs1)c1cccc2[nH]c(-c3ccccc3OCCN3CCOCC3)nc12` [SRTCX1003], for which the pIC50 was 5.85.

On to `O=C(Nc1nccs1)c1cccc2[nH]c(-c3cccc(N4CCOCC4)c3)nc12` [SRTCX1002], for which the negative logarithm of the IC50 (pIC50) is 6.08.

As for `O=C(Nc1nccs1)c1cccc2[nH]c(-c3ccc4c(c3)OC(F)(F)O4)nc12` [SRTCZ1001], the pIC50 was less than 4.60.
